How the values were obtained:
FGFR2 = FGFR2 (Homo sapiens, UniProt P21802); assay: Kinase inhibition activity test, isotope labeling: FGFR2; format: biochemical; conditions: for inhibition at 10 µM / Activity inhibition rate FGFR2 (h): test compound at a concentration of 10 μM; for inhibition at 10 µM: read-out: Activity inhibition rate FGFR2 (h); for IC50: ATP 90 μM, read-out: FGFR2 IC50 value (inhibitory activity value)
Method: (§1) The purpose of this experiment was to test the inhibitory activity of the compound of the invention for in vitro kinase with the isotope labeling method (the γ phosphate group on ATP was labeled). In this experiment, the in vitro activity inhibition of such kinases as FLT3, VEGFR2, FLT1, FLT4, RET, c-RAF, B-RAF, c-KIT, PDGFα, PDGFβ, FGFR2, FGFR1, EphA2, EphB2, SRC, ABL, ALK and Met was tested respectively. Staurosporine was reference molecule (or referred to as positive control). The kinase inhibition activity of the test compound was expressed by half-inhibitory concentration (IC50) or the kinase activity inhibition rate of the test compound at a concentration of 10 μM. The IC50 value could be obtained by calculating the kinase activity inhibition rate of the test compound at different concentrations.
(§2) 20 mM 3-(N-morpholinyl)propanesulfonic acid (MOPS); 1 mM ethylenediaminetetraacetic acid (EDTA), 0.01% Brij 35 (Brij-35), 5% glycerol, 0.1% mercaptoethanol, 1 mg/mL bovine serum albumin (BSA), 10 mM manganous dichloride solution (MnCl2), 0.1 mg/mL glutamic acid/tyrosine (4:1) polypeptide (poly(Glu, Tyr)4:1), 50 μM EAIYAAPFAKKK (substrate of FLT3), 0.33 mg/mL myelin basic protein (substrate of VEGFR2), 250 μM KKKSPGEYVNIEFG (substrate of FLT1(h)), 500 μM GGEEEEYFELVKKKK (substrate of FLT4(h)), 250 μM KKKSPGEYVNIEFG (substrate of RET), 0.66 mg/mL myelin basic protein (substrate of C-RAF), 250 μM GGMEDIYFEFMGGKKK (substrate of c-Kit), 250 μM GGMEDIYFEFMGGKKK (substrate of PDGFα), 250 μM KKKSPGEYVNIEFG (substrate of FGFR1), […] GGEEEEYFELVKKKK (substrate of SRC), 50 μM EAIYAAPFAKKK (substrate of ABL), 250 μM KKKSPGEYVNIEFG (substrate of ALK), 250 μM KKKSPGEYVNIEFG (substrate of Met(h)), 10 mM magnesium acetate and γ-^33 P-ATP solution, stop buffer (3% phosphate buffer), washing buffer (75 mM phosphate solution), methanol, Filtermat A membrane, FLT3, VEGFR2, FLT3, VEGFR2, FLT1, FLT4, RET, c-RAF, B-RAF, c-KIT, PDGFRα, PDGFRβ, FGFR2, FGFR1, EphA2, EphB2, SRC, ABL, ALK, Met and other kinases, and the test compounds.
(§3) Buffers (8 mM MOPS with pH value of 7.0, 0.2 mM EDTA and 10 mM MnCl2), (5-10 mU) kinases to be tested (FLT3, VEGFR2, FLT1, FLT4, RET, c-RAF, B-RAF, c-KIT, PDGFRα, PDGFRβ, FGFR2, FGFR1, EphA2, EphB2, SRC, ABL, ALK and Met), substrates of kinases to be tested (refer to experimental materials), 10 mM magnesium acetate and γ-^33 P-ATP solution, and test compounds at different concentrations were added to a reaction tube orderly. […] Reaction was terminated with 5 μL 3% phosphate buffer finally, and 10 μL reaction solution was titrated to the Filtermat A membrane; solution was washed for 3 times with 75 mM phosphate solution with each time lasting 5 minutes, and then washed once with methanol. Finally, the Filtermat A membrane was dried, and scintillation counting was performed on the membrane, with scintillation count reflecting the phosphorylation degree of the substrates, so that the activity inhibition of kinase could be characterized.

[1] = system: human gastric carcinoma cell line MKN-45; assay: In vitro tumor cell proliferation inhibition (MTT): MKN-45; format: cell-based
Excerpt: (§4) The purpose of the experiment was to test the inhibition activity of the compounds of the invention for in vitro human tumor cell proliferation by the methyl thiazolyl tetrazolium (MTT) colorimetry.
(§5) Main reagents: RPMI-1640, fetal bovine serum, pancreatin, etc. were purchased from Gibco BRL Company (Invitrogen Corporation, USA) and IMDM medium that was purchased from American Type Culture Collection (ATCC). Methyl thiazolyl tetrazolium (MTT) and dimethyl sulfoxide (DMSO) were products from Sigma Company (USA). Pyrazolopyrimidine derivatives were composed by the inventor. During in vitro experiment, 100% DMSO was prepared into 10 mM storage solution, the solution was stored in a refrigerator at −20° C. for future use, and was diluted to the required concentration with complete culture solution before use.
(§6) Cell line and culture: Human leukemia cell line MV4-11, Jurkat, K562, human thyrophyma cell line TT, human gastric carcinoma cell line MKN-45, human malignant melanoma cell lines A375 and A875, human pancreatic carcinoma cell line panc-1, human cervical carcinoma cell line HELA, human colorectal carcinoma cell line HCT116, etc. were purchased from American type culture collection and were preserved by this laboratory. All leukemia cell lines (except MV4-11), gastric carcinoma cell lines and thyrophyma cell lines were cultured in RPMI-1640 complete medium containing 10% fetal bovine serum, 100 U/mL penicillin and 100 μg/mL streptomycin at 37° C. in 5% CO2. The remaining cell lines were cultured in DMEM complete medium containing 10% fetal bovine serum (containing 20% MV4-11 cell), 100 U/mL penicillin and 100 µg/mL streptomycin at 37° C. in 5% CO2.
(§7) Cell suspension with cell concentration of 1-2×10^4/mL was adjusted with the complete cell medium and inoculated in a 96-well plate, with each well filled with 200 μl cell suspension that was cultured overnight. On the next day, supernatant was sucked and abandoned (supernatant was sucked upon centrifugation of suspension cells), and then cells were processed with test compounds at gradient concentrations respectively. Meanwhile, a negative control group free from drug and a solvent control group with equal volume were set, and the DMSO concentration was 0.1%. Each dose group was provided with three wells and cultured at 37° C. in 5% CO2. After 72 hours, 20 μl 5 mg/mL MTT reagent was added to each well, and cultured for another 2 to 4 hours, the supernatant was abandoned; 150 μL DMSO was added to each well again, vibrated and mixed evenly for 15 minutes; the absorbance (A) values (proportional to living cell amount) were determined with a microplate reader (λ=570 nm) and averaged. […] Experiment was repeated for 3 times at least. Experimental data were expressed with means, data statistics were tested by t, and P<0.05 means that difference has a statistical significance. The cell proliferation inhibition effects of all compounds as follows are expressed by IC50 or inhibition rate.

c-KIT = c-KIT (Homo sapiens, UniProt P10721); assay: Kinase inhibition activity test, isotope labeling: c-KIT; format: biochemical; conditions: for inhibition at 10 µM / Activity inhibition rate c-Kit (h): test compound at a concentration of 10 μM; for inhibition at 10 µM: read-out: Activity inhibition rate c-Kit (h); for IC50: ATP 200 μM, read-out: c-KIT IC50 value (inhibitory activity value)
Sequence of c-KIT (P10721 26-976): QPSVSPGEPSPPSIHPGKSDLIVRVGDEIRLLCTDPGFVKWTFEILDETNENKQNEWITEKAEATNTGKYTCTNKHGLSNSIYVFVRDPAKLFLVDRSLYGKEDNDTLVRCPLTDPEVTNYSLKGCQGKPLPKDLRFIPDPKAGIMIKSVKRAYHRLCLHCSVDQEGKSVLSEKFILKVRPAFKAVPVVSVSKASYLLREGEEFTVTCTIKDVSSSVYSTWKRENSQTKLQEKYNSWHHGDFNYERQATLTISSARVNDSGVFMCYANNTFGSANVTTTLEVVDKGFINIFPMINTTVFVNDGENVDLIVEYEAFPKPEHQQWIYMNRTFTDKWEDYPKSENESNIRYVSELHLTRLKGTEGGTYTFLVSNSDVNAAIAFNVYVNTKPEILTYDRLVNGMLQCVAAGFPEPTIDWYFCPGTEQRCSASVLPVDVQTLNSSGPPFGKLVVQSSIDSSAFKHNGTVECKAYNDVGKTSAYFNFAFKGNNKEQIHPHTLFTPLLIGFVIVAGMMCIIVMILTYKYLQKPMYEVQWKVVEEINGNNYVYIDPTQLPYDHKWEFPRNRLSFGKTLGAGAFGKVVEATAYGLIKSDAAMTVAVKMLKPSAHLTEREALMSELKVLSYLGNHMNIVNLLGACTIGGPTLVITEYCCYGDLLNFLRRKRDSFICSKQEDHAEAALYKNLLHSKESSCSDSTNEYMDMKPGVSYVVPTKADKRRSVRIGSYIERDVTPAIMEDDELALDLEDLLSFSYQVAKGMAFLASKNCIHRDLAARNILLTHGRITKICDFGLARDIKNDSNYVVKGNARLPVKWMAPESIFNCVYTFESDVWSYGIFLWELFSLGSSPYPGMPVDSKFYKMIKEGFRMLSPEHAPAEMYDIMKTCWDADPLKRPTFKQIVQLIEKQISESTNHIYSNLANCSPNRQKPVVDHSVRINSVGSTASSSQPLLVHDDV
Method: as §1, §2, §3

[2] = system: human leukemia cell line K562; assay: In vitro tumor cell proliferation inhibition (MTT): K562; format: cell-based
Excerpt: as §4, §5, §6, §7

[3] = system: human malignant melanoma cell line A875; assay: In vitro tumor cell proliferation inhibition (MTT): A875; format: cell-based
Excerpt: as §4, §5, §6, §7

[4] = system: human cervical carcinoma cell line HELA; assay: In vitro tumor cell proliferation inhibition (MTT): HELA; format: cell-based; conditions: 72 hours
Excerpt: as §4, §5, §6, §7

Sequence of FGFR2 (P21802 22-821): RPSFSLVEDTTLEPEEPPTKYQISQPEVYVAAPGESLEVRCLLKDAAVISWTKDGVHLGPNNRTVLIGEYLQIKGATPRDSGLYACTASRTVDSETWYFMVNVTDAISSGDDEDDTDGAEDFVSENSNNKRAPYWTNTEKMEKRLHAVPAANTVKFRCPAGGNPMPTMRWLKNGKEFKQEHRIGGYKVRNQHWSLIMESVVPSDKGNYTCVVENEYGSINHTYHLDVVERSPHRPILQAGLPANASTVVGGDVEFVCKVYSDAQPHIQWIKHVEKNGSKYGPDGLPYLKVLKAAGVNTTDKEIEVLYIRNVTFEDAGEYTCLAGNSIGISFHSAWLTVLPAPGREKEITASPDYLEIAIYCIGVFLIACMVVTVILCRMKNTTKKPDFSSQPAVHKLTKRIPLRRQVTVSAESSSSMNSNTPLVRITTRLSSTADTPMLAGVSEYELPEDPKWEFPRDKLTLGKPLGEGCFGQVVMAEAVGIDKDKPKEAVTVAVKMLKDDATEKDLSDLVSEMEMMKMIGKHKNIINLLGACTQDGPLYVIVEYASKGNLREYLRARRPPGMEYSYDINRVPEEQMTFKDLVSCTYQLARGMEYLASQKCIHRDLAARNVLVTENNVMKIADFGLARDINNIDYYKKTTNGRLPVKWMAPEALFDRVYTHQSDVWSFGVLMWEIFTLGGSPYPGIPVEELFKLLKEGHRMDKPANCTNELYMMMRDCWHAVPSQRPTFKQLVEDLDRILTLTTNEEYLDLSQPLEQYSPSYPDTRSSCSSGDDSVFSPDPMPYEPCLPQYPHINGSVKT

Structure (SMILES) | inhibition at 10 µM (FGFR2) [%] | IC50 ([1]; Homo sapiens, MKN-45, 72 hours) [µM] | inhibition at 10 µM (c-KIT) [%] | IC50 ([2]; Homo sapiens, K562, 72 hours) [µM] | IC50 ([3]; Homo sapiens, A875, 72 hours) [µM] | IC50 ([4]; Homo sapiens, HeLa) [µM] | Activity inhibition rate FGFR2 (h) (FGFR2) [%] | IC50 ([1]; 72 hours) [µM] | IC50 [4] [µM] | Activity inhibition rate c-Kit (h) (c-KIT) [%] | IC50 ([2]; 72 hours) [µM] | IC50 ([3]; 72 hours) [µM] | IC50 (FGFR2) [µM] | IC50 (c-KIT) [µM]
CC(C)n1ncc2c(Oc3ccc(NC(=O)Nc4cc(C(C)(C)C)on4)cc3)ncnc21 [5a-4, 1-(5-tert-butylisoxazol-3-yl)-3-(4-(1-isopropyl-(1H-pyrazolopyrimidine-4-yl)oxy)phenyl)urea] | > 30 | < 50 | > 30 | < 50 | < 50 |  |  |  |  |  |  |  |  | 
O=C(Nc1ccc(Oc2ncnc3[nH]ncc23)cc1)Nc1cc(C(F)(F)F)on1 [4a-28] | > 50 | 3 to 10 | > 90 | 3 to 10 | < 50 | < 50 |  |  |  |  |  |  |  | 
O=C(Nc1ccc(C(F)(F)F)cc1)Nc1ccc(Oc2ncnc3[nH]ncc23)c(F)c1 [4a-9, 1-(4-((1H-pyrazolopyrimidine-4-yl)oxy)-3-fluorophenyl)-3-(4-(trifluoromethyl)phenyl)urea] |  |  |  |  |  |  | 18 | 7.63 | 4.98 | 29 | 2.7 | < 50 |  | 
CC(C)(C)c1cc(NC(=O)Nc2ccc(Oc3ncnc4[nH]ncc34)cc2)n(-c2ccccc2)n1 [4a-24] |  |  |  |  |  |  | >50 | 2.84 | 5.51 | >90 | < 50 | 4.27 |  | 
CC(C)(C)c1cc(NC(=O)Nc2ccc(Sc3ncnc4[nH]ncc34)cc2)no1 [4c-3, 1-(4-(1H-pyrazolopyrimidine-4-sulfydryl)phenyl)-3-(5-tert-butylisoxazol-3-yl)urea] |  |  |  |  |  |  | >50 | 3 to 10 | < 50 | >90 | < 50 | < 50 |  | 
CC(C)(C)c1cc(NC(=O)Nc2ccc(Oc3ncnc4[nH]ncc34)c(F)c2)no1 [4a-31] |  |  |  |  |  |  | >50 | < 50 | 3 to 10 | >90 | 3 to 10 | 3 to 10 | < 10 | 0.087
CC(C)(C)c1cc(NC(=O)Nc2ccc(Oc3ncnc4[nH]ncc34)cc2)no1 [4a-26] | > 50 | 1.12 | > 90 | 3 to 10 | 3 to 10 | 3 to 10 |  |  |  |  |  |  |  | 
O=C(Nc1cccc(Nc2ncnc3[nH]ncc23)c1)Nc1ccc(F)c(Cl)c1 [4b-1] | 22 | < 50 | > 30 | 3.45 | < 50 | < 50 |  |  |  |  |  |  |  | 
O=C(Nc1ccc(Oc2ncnc3[nH]ncc23)cc1)Nc1cccc(C(F)(F)F)c1 [4a-6] | 56 | 9.71 | 100 | < 50 | 6.24 | < 50 |  |  |  |  |  |  | < 10 | 0.313
O=C(Nc1ccc(Sc2ncnc3[nH]ncc23)cc1)Nc1cccc(C(F)(F)F)c1 [4c-2] |  |  |  |  |  |  | >50 | 8.71 |  | >90 |  | < 50 |  | 
O=C(Nc1ccc(Sc2ncnc3[nH]ncc23)cc1)Nc1ccc(C(F)(F)F)cc1 [4c-1] | > 50 |  | > 90 |  | < 50 |  |  |  |  |  |  |  |  | 

Continued, in another order:

inhibition at 10 µM (FGFR2) [%] | IC50 ([1]; Homo sapiens, MKN-45, 72 hours) [µM] | inhibition at 10 µM (c-KIT) [%] | IC50 ([2]; Homo sapiens, K562, 72 hours) [µM] | IC50 ([3]; Homo sapiens, A875, 72 hours) [µM] | IC50 ([4]; Homo sapiens, HeLa) [µM] | Activity inhibition rate FGFR2 (h) (FGFR2) [%] | IC50 ([1]; 72 hours) [µM] | IC50 [4] [µM] | Activity inhibition rate c-Kit (h) (c-KIT) [%] | IC50 ([2]; 72 hours) [µM] | IC50 ([3]; 72 hours) [µM] | Structure (SMILES) | IC50 (FGFR2) [µM] | IC50 (c-KIT) [µM]
22 | < 50 | 100 | < 50 | 3 to 10 | < 50 |  |  |  |  |  |  | O=C(Nc1ccc(Oc2ncnc3[nH]ncc23)cc1)Nc1ccc(C(F)(F)F)cc1 [4a-1] |  | 
45 | < 50 | > 30 | < 50 | < 50 | < 50 |  |  |  |  |  |  | COc1cccc(NC(=O)Nc2ccc(Nc3ncnc4[nH]ncc34)cc2)c1 [4b-3] |  | 
52 | 7.64 | > 30 |  |  |  |  |  |  |  |  |  | O=C(Nc1ccc(NC(=O)N2C=NC=C3NNC=C32)cc1)Nc1ccc(Cl)c(C(F)(F)F)c1 [4b-5, 1-(4-(1H-pyrazolopyrimidine-4-amido)phenyl)-3-(4-chloro-3-(trifluoromethyl)phenyl)urea] |  | 
69 | < 50 | > 30 | < 50 | < 50 |  |  |  |  |  |  |  | Cc1cc(C)c(NC(=O)Nc2ccc(NC(=O)N3C=NC=C4NNC=C43)cc2)c(C)c1 [4b-7, 1-(4-(1H-pyrazolopyrimidine-4-amido)phenyl)-3-(2,4,6-trimethylphenyl)urea] |  | 
32 | < 50 | > 30 | < 50 | < 50 |  |  |  |  |  |  |  | COc1ccc(NC(=O)Nc2ccc(NC(=O)N3C=NC=C4NNC=C43)cc2)cc1 [4b-6, 1-(4-(1H-pyrazolopyrimidine-4-amido)phenyl)-3-(4-methoxyphenyl)urea] |  | 
 | 3.22 | 77 | < 50 | < 50 | < 50 |  |  |  |  |  |  | O=C(Nc1ccc(Oc2ncnc3[nH]ncc23)cc1)Nc1ccc(N2CCOCC2)cc1 [4a-16, 1-(4-((1H-pyrazolopyrimidine-4-yl)oxy)phenyl)-3-(4-morpholinylphenyl)urea] |  | 

Source: patent US9828375B2, “4-position substituted pyrazolopyrimidine derivative, and use thereof in drug preparation” (Guangxi Wuzhou Pharmaceuticals (Group) Co., Ltd., priority 2012, dated 2017)
